One assay has as its target CBL-B protein (Homo sapiens, UniProt Q13191). Nature of the assay: CBL-B binding experiment (Streptavidin-Tb cryptate / Ligand L1 displacement). Conditions: 8 nM CBL-B protein, 25° C., 60 minutes; Ki=Relative IC50/2. A digest of the protocol:
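Compounds in a 10-point DMSO series met 8 nM CBL-B protein in HEPES pH 7.5/NaCl/Triton/TCEP/BSA buffer at 25° C. for 60 min. A further 60 min at room temperature preceded the luminescence read, normalised to no-protein and DMSO wells. Ki was taken as relative IC50 divided by 2.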

Assay [1] deals with anti-CD3 activated human PBMCs. Nature of the assay: Effect of compounds on the level of IL-2 secretion by anti-CD3 activated human PBMCs (IL-2 ELISA). The format is cell-based. Conditions: compound concentration at which fold change in IL-2 = 5; hPBMCs, CD3 antibody 2 μg/mL, 48 h, compound from 3 μM. In short, it runs like this: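 Human PBMCs were preincubated 1 h, then exposed to compound (10 points, 3-fold from 3 μM final) with anti-CD3 at 2 μg/mL for 48 h at 37° C. Supernatant IL-2 was measured by ELISA as fold change over DMSO.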
On the technique in general: In an ELISA, binding on a coated surface is turned into a signal by an enzyme label.

A value given as a limit tells only on which side of the number the result lay.

CBL-B protein, sequence (Q13191 whole entry): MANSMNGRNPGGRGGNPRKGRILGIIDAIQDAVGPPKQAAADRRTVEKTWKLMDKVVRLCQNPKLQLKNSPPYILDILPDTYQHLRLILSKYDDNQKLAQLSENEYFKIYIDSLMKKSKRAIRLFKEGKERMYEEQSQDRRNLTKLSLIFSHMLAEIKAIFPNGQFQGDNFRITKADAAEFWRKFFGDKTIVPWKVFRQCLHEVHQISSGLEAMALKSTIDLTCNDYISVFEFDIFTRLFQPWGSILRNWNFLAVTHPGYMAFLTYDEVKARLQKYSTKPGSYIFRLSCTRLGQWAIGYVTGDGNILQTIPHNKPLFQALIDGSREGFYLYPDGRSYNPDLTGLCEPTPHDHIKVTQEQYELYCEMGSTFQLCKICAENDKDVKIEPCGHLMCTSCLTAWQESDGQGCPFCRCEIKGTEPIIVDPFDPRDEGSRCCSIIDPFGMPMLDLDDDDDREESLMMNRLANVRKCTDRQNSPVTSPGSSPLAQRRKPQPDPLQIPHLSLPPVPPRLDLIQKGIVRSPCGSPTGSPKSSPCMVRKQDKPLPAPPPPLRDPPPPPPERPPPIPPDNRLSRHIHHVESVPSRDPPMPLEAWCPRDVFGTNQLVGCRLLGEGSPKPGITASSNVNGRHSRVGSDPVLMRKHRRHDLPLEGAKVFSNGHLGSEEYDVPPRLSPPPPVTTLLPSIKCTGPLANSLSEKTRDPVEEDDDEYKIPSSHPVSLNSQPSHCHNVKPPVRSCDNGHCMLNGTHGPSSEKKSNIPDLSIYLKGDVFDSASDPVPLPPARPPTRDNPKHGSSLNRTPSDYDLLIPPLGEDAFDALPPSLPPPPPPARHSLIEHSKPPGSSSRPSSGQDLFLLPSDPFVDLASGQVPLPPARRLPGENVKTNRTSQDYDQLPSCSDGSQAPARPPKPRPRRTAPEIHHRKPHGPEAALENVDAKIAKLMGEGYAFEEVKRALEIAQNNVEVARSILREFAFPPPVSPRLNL

As for `CO[C@H]1C[C@@](c2cccc(-n3cc(C(F)(F)F)c4cc(CN5CCC[C@H](C)C5)[nH]c4c3=O)c2)(c2nncn2C)C1` [Compound T134, 6-(3-((1s,3R)-3-methoxy-1-(4-methyl-4H-1,2,4-triazol-3-yl)cyclobutyl)phenyl)-2-(((S)-3-methylpiperidin-1-yl)methyl)-4-(trifluoromethyl)-1,6-dihydro-7H-pyrrolo[2,3-c]pyridin-7-one], the inhibition constant (Ki) (commonly the dissociation constant of the complex between target and ligand, obtained from inhibition or displacement) at CBL-B protein was under 50 nM. Also, the “IL-2 CFC=5/nM” value in assay [1] was under 500 nM.
In the case of `CO[C@H]1C[C@](c2cccc(-n3cc(C(F)(F)F)c4cc(CN5CCC[C@H](C)C5)[nH]c4c3=O)c2)(c2nncn2C)C1` [Compound T135, 6-(3-((1r,3S)-3-methoxy-1-(4-methyl-4H-1,2,4-triazol-3-yl)cyclobutyl)phenyl)-2-(((S)-3-methylpiperidin-1-yl)methyl)-4-(trifluoromethyl)-1,6-dihydro-7H-pyrrolo[2,3-c]pyridin-7-one], the Ki at CBL-B protein is under 50 nM. The “IL-2 CFC=5/nM” value in assay [1] is on record as under 500 nM.
In the same order, the values of `CO[C@H]1C[C@@](c2cccc(-n3cc(C(F)(F)F)c4cc(CN5CC6CCC(C6)C5)[nH]c4c3=O)c2)(c2nncn2C)C1` [Compound T145, 2-((3-azabicyclo[3.2.1]octan-3-yl)methyl)-6-(3-((1s,3s)-3-methoxy-1-(4-methyl-4H-1,2,4-triazol-3-yl)cyclobutyl)phenyl)-4-(trifluoromethyl)-1,6-dihydro-7H-pyrrolo[2,3-c]pyridin-7-one] are under 50 nM and under 500 nM.
`CO[C@H]1C[C@@](c2cccc(-n3cc(C(F)(F)F)c4cc(CN5CCCC6(CC6)C5)[nH]c4c3=O)c2)(c2nncn2C)C1` [Compound T147, 2-((5-azaspiro[2.5]octan-5-yl)methyl)-6-(3-((1s,3s)-3-methoxy-1-(4-methyl-4H-1,2,4-triazol-3-yl)cyclobutyl)phenyl)-4-(trifluoromethyl)-1,6-dihydro-7H-pyrrolo[2,3-c]pyridin-7-one]: the Ki on CBL-B protein is under 50 nM. Also, the “IL-2 CFC=5/nM” value in assay [1] is recorded as under 500 nM.
In the same order, the values of `CCN(Cc1cc2c(C(F)(F)F)cn(-c3cccc([C@]4(c5nncn5C)C[C@@H](OC)C4)c3)c(=O)c2[nH]1)CC(C)C` [Compound T149, 2-((ethyl(isobutyl)amino)methyl)-6-(3-((1s,3s)-3-methoxy-1-(4-methyl-4H-1,2,4-triazol-3-yl)cyclobutyl)phenyl)-4-(trifluoromethyl)-1,6-dihydro-7H-pyrrolo[2,3-c]pyridin-7-one] are under 50 nM and under 500 nM.
In the same order, the values of `CO[C@H]1C[C@](c2cccc(-n3cc(C(F)(F)F)c4cc(CNCCC5CC5)[nH]c4c3=O)c2)(c2nncn2C)C1` [Compound T154, 2-(((2-cyclopropylethyl)amino)methyl)-6-(3-((1r,3r)-3-methoxy-1-(4-methyl-4H-1,2,4-triazol-3-yl)cyclobutyl)phenyl)-4-(trifluoromethyl)-1,6-dihydro-7H-pyrrolo[2,3-c]pyridin-7-one] are under 50 nM and under 500 nM.
For `CO[C@H]1C[C@](c2cccc(-n3cc(C(F)(F)F)c4cc(CN5CCCC(C(F)F)C5)[nH]c4c3=O)c2)(c2nncn2C)C1` (stereo partly shown) [Compound T156, 2-((3-(difluoromethyl)piperidin-1-yl)methyl)-6-(3-((1r,3r)-3-methoxy-1-(4-methyl-4H-1,2,4-triazol-3-yl)cyclobutyl)phenyl)-4-(trifluoromethyl)-1,6-dihydro-7H-pyrrolo[2,3-c]pyridin-7-one] the same measures were under 50 nM and under 500 nM.
As to `Cn1cnnc1[C@]1(c2cccc(-n3cc(C(F)(F)F)c4cc(CN5CCCC(C(F)F)C5)[nH]c4c3=O)c2)C[C@H](C)C1` (stereo partly shown) [Compound T157, 2-((3-(difluoromethyl)piperidin-1-yl)methyl)-6-(3-((1s,3s)-3-methyl-1-(4-methyl-4H-1,2,4-triazol-3-yl)cyclobutyl)phenyl)-4-(trifluoromethyl)-1,6-dihydro-7H-pyrrolo[2,3-c]pyridin-7-one], the Ki at CBL-B protein was under 50 nM. Moreover, in assay [1], the “IL-2 CFC=5/nM” value is under 500 nM.
The compound `C[C@H](NCc1cc2c(C(F)(F)F)cn(-c3cccc([C@]4(c5nncn5C)C[C@@H](C)C4)c3)c(=O)c2[nH]1)C(C)(C)C` [Compound T158, 2-((((S)-3,3-dimethylbutan-2-yl)amino)methyl)-6-(3-((1s,3R)-3-methyl-1-(4-methyl-4H-1,2,4-triazol-3-yl)cyclobutyl)phenyl)-4-(trifluoromethyl)-1,6-dihydro-7H-pyrrolo[2,3-c]pyridin-7-one] had a Ki at CBL-B protein of under 50 nM. Also, in assay [1], the “IL-2 CFC=5/nM” value is on record as under 500 nM.
`CCN(Cc1cc2c(C(F)(F)F)cn(-c3cccc([C@]4(c5nncn5C)C[C@@H](C)C4)c3)c(=O)c2[nH]1)C(C)C` [Compound T159, 2-((ethyl(isopropyl)amino)methyl)-6-(3-((1s,3s)-3-methyl-1-(4-methyl-4H-1,2,4-triazol-3-yl)cyclobutyl)phenyl)-4-(trifluoromethyl)-1,6-dihydro-7H-pyrrolo[2,3-c]pyridin-7-one] yielded an inhibitory constant (Ki) on CBL-B protein of under 50 nM. In assay [1], the “IL-2 CFC=5/nM” value is listed as under 500 nM.
In the same order, the values of `CCCNCc1cc2c(C(F)(F)F)cn(-c3cccc(C4(c5nncn5C)CCC4)c3)c(=O)c2[nH]1` [Compound T160, 6-(3-(1-(4-methyl-4H-1,2,4-triazol-3-yl)cyclobutyl)phenyl)-2-((propylamino)methyl)-4-(trifluoromethyl)-1,6-dihydro-7H-pyrrolo[2,3-c]pyridin-7-one] are under 50 nM and under 500 nM.
In the same order, the values of `Cn1cnnc1C1(c2cccc(-n3cc(C(F)(F)F)c4cc(CNC(C)(C)C)[nH]c4c3=O)c2)CCC1` [Compound T161, 2-((tert-butylamino)methyl)-6-(3-(1-(4-methyl-4H-1,2,4-triazol-3-yl)cyclobutyl)phenyl)-4-(trifluoromethyl)-1,6-dihydro-7H-pyrrolo[2,3-c]pyridin-7-one] are under 50 nM and under 500 nM.
In the same order, the values of `Cn1cnnc1C1(c2cccc(-n3cc(C(F)(F)F)c4cc(CNCC(C)(C)C)[nH]c4c3=O)c2)CCC1` [Compound T162, 6-(3-(1-(4-methyl-4H-1,2,4-triazol-3-yl)cyclobutyl)phenyl)-2-((neopentylamino)methyl)-4-(trifluoromethyl)-1,6-di hydro-7H-pyrrolo[2,3-c]pyridin-7-one] are under 50 nM and under 500 nM.
For the compound `CCN(Cc1cc2c(C(F)(F)F)cn(-c3cccc([C@]4(c5nncn5C)C[C@@H](OC)C4)c3)c(=O)c2[nH]1)C(C)C` [Compound T192], on CBL-B protein, the Ki is under 50 nM. Further, the “IL-2 CFC=5/nM” value in assay [1] is listed as under 500 nM.

Source of the values: patent US20260217706A1, “HETEROCYCLIC COMPOUNDS, PREPARATION METHOD THEREFOR AND USE THEREOF” (GUANGZHOU YUFAN NANTU BIOTECHNOLOGIES CO., LTD, priority 2023, published 2026).
